In US20250072423A1, “THIOPHENE ACETIC ACID FOR PLANT GROWTH REGULATION” (priority 2023, published 2025):

Key:
[1] = tested on: tomato cotyledon explants; assay: Root regeneration from tomato cotyledon explants in vitro (Experiment 2); type: cell-based, tomato cultivar Roma VF; settings: 0.05 and 0.1 mg/L
Method: Seeds of tomato cultivar Roma VF were sterilized by treating with 75% ethanol for 30 seconds at room temperature and washed with sterile water for five times. The seeds were then treated with 15% sodium hypochlorite for 10 minutes and washed five times in sterile water. The sterilized seeds were germinated on half-strength Murashige and Skoog (MS) medium in vitro. Cotyledons from 10-day old seedlings before first true leaves emerged were used as starting explants in all the experiments. The base and tip of the cotyledons were excised and the explants were transferred with the abaxial surface in contact with the culture medium. The basic culture medium consists of MS medium with vitamins supplemented with 30 g/L sucrose and gelled with 0.8% agar, and the pH of the medium was adjusted to 5.8±0.2. Plates were maintained at a light cycle of 16/8 hours day/night, temperature of 26/24° C. day/night, and relative humidity of 70% and subcultured on the same media after 14 days. Observations were made on 7, 14, 21 and 28 days of growth. All experiments were conducted with at least three replicates of 10 explants each.
In order to analyze the effect of TAA on root regeneration, the basic media were supplemented with different concentrations of TAA (0.05 and 0.1 mg/L) and further compared with individual effect of widely used auxins (IAA, NAA, IBA, 2,4 D) at similar concentrations.

[2] = tested on: tomato cotyledon explants; assay: Shoot regeneration from tomato cotyledon explants with 1 mg/L BAP (Experiment 3); type: cell-based, tomato cultivar Roma VF
Source text: The sterilized seeds were germinated on half-strength Murashige and Skoog (MS) medium in vitro. Cotyledons from 10-day old seedlings before first true leaves emerged were used as starting explants in all the experiments. The base and tip of the cotyledons were excised and the explants were transferred with the abaxial surface in contact with the culture medium. The basic culture medium consists of MS medium with vitamins supplemented with 30 g/L sucrose and gelled with 0.8% agar, and the pH of the medium was adjusted to 5.8±0.2. […] All experiments were conducted with at least three replicates of 10 explants each.
To analyse the effects on shoot regeneration, the basic media was supplemented with 1 mg/L BAP and different concentrations of TAA, IAA, NAA, IBA and 2,4 D (0.05, 0.1, 0.5, 1.0 and 2.0 mg/L) individually. Since there are no previous reports on suitable concentration ranges for TAA in tomato regeneration, concentrations at 50.0, 100.0, 200.0 and 300.0 mg/L were analysed additionally for TAA.

[3] = tested on: tobacco leaf explants; assay: Shoot organogenesis from tobacco leaf explants in vitro (Experiment 4); type: cell-based, Nicotiana tabacum L. cv. Petit Havana SRI; settings: 8 weeks
[4] = tested on: auxin-response promoter DR5
Method: Artificial auxin-response promoter DR5 that contains a minimal 35S promoter fused to 9 repeats of an AuxRE with strict auxin specificity and responsive to only active auxins is used to indirectly visualize auxin in plants.
To further analyze the ability of TAA to induce an auxin response in tobacco, seedlings from transgenic tobacco plants expressing reporter gene RFP (red fluorescent protein gene) under the control of DR5 promoter were treated with different concentrations of TAA and compared the pattern of RFP fluorescence to that generated by equimolar concentration of other reported auxins over time.
Induction of an auxin response by TAA was analyzed by detecting the expression of fluorescent reporter gene under the control of auxin response elements (AuxRE) in transgenic tobacco. Plant transformation vector DR5rev::erRFP carrying DsRED reporter gene under an auxin-responsive promoter was obtained from addgene (www.addgene.org, plasmid ID. 61011). The plasmid was introduced into the Agrobacterium strain LBA4404, using freeze-thaw transformation. Transgenic plants were selected on a medium containing 25 mg/L hygromycin and then verified by PCR (polymerase chain reaction). The rooted plants were grown in soil and PCR positive tobacco seedlings were used in further experiments.

[5] = tested on: AtPIN1 (AT1G73590); assay: qRT-PCR of early auxin-responsive gene AtPIN1 (Experiment 9); type: in vivo, A. thaliana; settings: 10 μM TAA, after 6 hours
Method: (§1) To analyze TAA responsive genes in Arabidopsis, WT Arabidopsis seeds were germinated as described and 14-day-old uniform-looking seedlings were initially acclimatized in liquid germination medium for 2 hours before transferring to medium containing different concentrations of TAA (5 and 10 μM). Seedlings in media supplemented with DMSO were used as control. Five random seedlings were selected and considered as one sample and three samples from both control and treatments were flash frozen in liquid nitrogen and total RNA was isolated using a TRIzol reagent (ThermoFisher Scientific, Cat #15596026).
(§2) Expression levels of seven previously reported early auxin-responsive genes were verified by qRT-PCR (quantitative reverse transcription polymerase chain reaction). RNA reverse transcription was performed using QuantiTect Reverse Transcription Kit (Qiagen). Three biological replicates and three technical replicates were used for all qRT-PCRs. Arabidopsis actin gene (AT3G18780) was used as internal reference.

[6] = tested on: AtGH3.3 (AT2G23170); assay: qRT-PCR of early auxin-responsive gene AtGH3.3 (Experiment 9); type: in vivo, A. thaliana; settings: 5 and 10 μM TAA, concentration and time-dependent
Method: as §1, §2

[7] = tested on: AtIAA19 (AT3G15540); assay: qRT-PCR of early auxin-responsive gene AtIAA19 (Experiment 9); type: in vivo, A. thaliana; settings: 5 and 10 μM TAA
Method: as §1, §2

[8] = tested on: AtIAA29 (AT4G32280); assay: qRT-PCR of early auxin-responsive gene AtIAA29 (Experiment 9); type: in vivo, A. thaliana; settings: 5 and 10 μM TAA
Method: as §1, §2

[9] = tested on: AtLBD29, AT3G58190; assay: qRT-PCR of early auxin-responsive gene AtLBD29 (Experiment 9); type: in vivo, A. thaliana; settings: 5 and 10 μM TAA, both time points
Method: as §1, §2

[10] = tested on: AtARF19, AT1G19220; assay: qRT-PCR of early auxin-responsive gene AtARF19 (Experiment 9); type: in vivo, A. thaliana; settings: 5 and 10 μM TAA, both time points
Method: as §1, §2

[11] = tested on: tomato cotyledon explants; assay: Shoot regeneration from tomato cotyledon explants with 1 mg/L BAP (Experiment 3); type: cell-based, tomato cultivar Roma VF; remark: listed apart in the source

O=C(O)Cc1ccsc1 [TAA]
root growth / root regeneration compared with known auxins ([1]; after Day 7 (FIG. 3)): performs on par with most known auxins
organogenesis from tomato cotyledon explants (root formation) ([1]; no other hormones, within 7 days): rapid root formation
time to necrosis of explants ([2]; 300 mg/L with 1 mg/L BAP): ≤ 7 days
survival of explants ([2]; 300 mg/L with 1 mg/L BAP, by Day 28): all explants were dead
shoot organogenesis ([2]; 50.0, 100.0 and 200.0 mg/L with 1 mg/L BAP): did not show any shoot or root formation
number of shoots regenerated per explant versus basic shoot regeneration media ([3]; 1 mg/L TAA with 2 mg/L kinetin): 3 times
total number of shoots regenerated versus basic shoot regeneration media ([3]; 1 mg/L TAA with 2 mg/L kinetin): 3 times
number of shoots regenerated per explant versus basic shoot regeneration media ([3]; 2 mg/L TAA with 2 mg/L kinetin): 3 times
total number of shoots regenerated versus basic shoot regeneration media ([3]; 2 mg/L TAA with 2 mg/L kinetin): 3 times
number of regenerated shoots versus basic shoot regeneration media ([3]; 3 mg/L TAA with 2 mg/L kinetin): more than double
number of regenerated shoots versus basic shoot regeneration media ([3]; 5 mg/L TAA with 2 mg/L kinetin): more than double
effect on shoot regeneration and size of regenerated shoots ([3]; TAA added to 3% MS + 2 mg/L kinetin): positive effect
RFP after short-term treatment and withdrawal ([4]; 48 h after TAA withdrawal): detectable in roots even after 48 h of TAA withdrawal
time to auxin reporter gene expression in primary root tips ([4]; all concentrations of TAA analyzed): ≤ 30 min
spread of RFP fluorescence ([4]; by 48 h of treatment): RFP signal was observable in secondary roots
RFP signal at the root tip with increasing TAA concentrations ([4]; dose dependence): gradually increased
AtPIN1 gene expression [5]: nearly five-fold
AtGH3.3 upregulation [6]: over 70 fold
AtIAA19 expression [7]: induction
AtIAA29 expression [8]: induction
AtLBD29 expression [9]: upregulation
AtARF19 expression [10]: upregulation
number of shoots (shoot regeneration) ([11]; 10.0 mg/L with 1 mg/L BAP): maximum number of shoots
start of shoot formation ([11]; 0.05, 0.1, 0.5, 1.0, 2.0 and 10.0 mg/L with 1 mg/L BAP): ~14 days
shoot organogenesis ([11]; 0.05, 0.1, 0.5, 1.0, 2.0 and 10.0 mg/L with 1 mg/L BAP, by Day 28): many explants had well defined shoots
